In patent US7718626B2, “ErbB3 binding protein compositions and methods of use” (University of Maryland, Baltimore, priority 2005, dated 2010):

What was measured:
[1] = test system: LNCaP cells; assay: Growth in steroid-reduced medium with DHT and/or bicalutamide; assay type: cell-based, human; conditions: 10^−9 M DHT
Experimental: Cell Growth Assays: To measure growth in complete media, cells (2×10^4) were seeded in triplicate in individual wells of 12-well tissue culture plates in RPMI-1640 with 10% FBS and cultured for the indicated number of days. Cells were trypsinized, stained with Trypan Blue (0.4%), and counted in a hemacytometer. […] Colonies were counted after 10 days of incubation. For studies assessing the effect of dihydrotestosterone (DHT) on cell growth, cells (2×10^4) were plated in 12-well plates in complete media. After a 24-hour attachment period, the medium was replaced with steroid-free medium [phenol red-free RPMI 1640 and 5% charcoal-stripped FBS (Sigma)] for 48 hours. The final concentration of testosterone in the steroid-reduced media was less than 5 pM. After 48 hours of steroid depletion, cells were re-fed with fresh steroid-reduced medium with or without the indicated concentrations of DHT and/or bicalutamide (10 μM), and total cell numbers were assessed 7 days later.

[2] = biological target: Androgen Receptor (AR) (Homo sapiens, UniProt P10275, T878A)
Experimental: Luciferase Reporter Assays: Vector control or ebp1-transfected LNCaP (5×10^4) cells were plated in twelve-well plates in complete media. When cells reached 50-60% confluence, they were transfected with 0.5 μg of MMTV-luc using the Fugene-6 reagent (Roche). Cells were also transfected with the RL-TK vector as an internal control. […] Luciferase activity was determined as previously described using a Dual-Luciferase kit (Promega, Madison, Wis.). The activities of renilla luciferase were used to normalize any variations in transfection efficiency. The promoter activities of each plasmid construct were calculated as the firefly-renilla luciferase activity ratios. All transfection experiments were carried out in triplicate wells and repeated three times.

Androgen Receptor (AR), sequence (P10275 whole entry T878A): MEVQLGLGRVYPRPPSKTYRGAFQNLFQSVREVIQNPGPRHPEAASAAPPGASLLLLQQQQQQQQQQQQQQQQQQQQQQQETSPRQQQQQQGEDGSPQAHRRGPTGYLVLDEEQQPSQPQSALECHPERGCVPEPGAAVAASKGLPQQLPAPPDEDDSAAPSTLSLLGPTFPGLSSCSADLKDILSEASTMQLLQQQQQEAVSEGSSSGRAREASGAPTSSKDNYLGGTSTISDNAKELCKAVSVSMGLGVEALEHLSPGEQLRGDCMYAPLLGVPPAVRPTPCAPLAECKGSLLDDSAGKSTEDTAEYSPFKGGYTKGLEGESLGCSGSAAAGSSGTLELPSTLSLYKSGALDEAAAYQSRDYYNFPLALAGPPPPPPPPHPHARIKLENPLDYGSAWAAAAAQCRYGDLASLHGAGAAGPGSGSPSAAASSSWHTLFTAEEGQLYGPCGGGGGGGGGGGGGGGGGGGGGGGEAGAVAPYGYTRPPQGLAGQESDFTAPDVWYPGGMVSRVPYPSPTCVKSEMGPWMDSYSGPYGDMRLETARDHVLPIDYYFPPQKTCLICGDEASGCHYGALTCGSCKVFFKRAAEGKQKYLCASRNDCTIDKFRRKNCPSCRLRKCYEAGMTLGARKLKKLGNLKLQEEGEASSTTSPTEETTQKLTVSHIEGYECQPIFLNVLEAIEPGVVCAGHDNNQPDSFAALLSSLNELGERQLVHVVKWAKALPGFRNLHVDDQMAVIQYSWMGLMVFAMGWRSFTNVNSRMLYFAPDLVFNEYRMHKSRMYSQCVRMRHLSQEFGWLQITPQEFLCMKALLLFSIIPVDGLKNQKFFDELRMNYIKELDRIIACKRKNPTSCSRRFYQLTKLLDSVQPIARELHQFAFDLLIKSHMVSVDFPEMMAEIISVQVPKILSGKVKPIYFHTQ

SMILES	stimulation of growth as compared to no DHT ([1]; Ebp1 transfectants) [%]	stimulation of growth as compared to no DHT ([1]; LNCaP vector controls, maximal) [%]	activation of luciferase activity (MMTV-luc) ([2]; LNCaP vector controls, R1881 10^−8 M) [fold]	AR activation (MMTV-luc) ([2]; ebp1 transfectants)
C[C@]12CCC(=O)C[C@@H]1CC[C@@H]1[C@@H]2CC[C@]2(C)[C@@H](O)CC[C@@H]12 [DHT, dihydrotestosterone]	35	250	–	–
C[C@]1(O)CC[C@H]2[C@@H]3CCC4=CC(=O)CCC4=C3C=C[C@@]21C [R1881]	–	–	20	neither R1881 nor cyproterone acetate nor the combination thereof stimulated AR activation
